Assay results taken from patent publication US20120258945A1, “Association Between Ferroquine and an Artemisinine Derivative for Treating Malaria” (priority 2005, published 2012).

Key:
[1] = tested on: Plasmodium vinckei vinckei; assay: Mortality / survival and curative dose in mice infected with Plasmodium vinckei vinckei; format: in vivo; details: oral, 4 days of treatment, compounds administered separately
Protocol: (§1) On the first day of treatment (D0), one hour after infection (10^7 parasitized erythrocytes suspended in a phosphate buffered saline (0.9%)), the animal is administered, orally, as appropriate, with ferroquine, with artesunate or with a mixture of the two active ingredients. This administration is repeated on the following three days (D1 to D3) (Peter, 1987). When the two products are administered in combination, the artesunate is administered first, the ferroquine is administered second, 45 minutes later. On the fourth day, a blood smear is taken from the tail of the mouse. The sample is fixed on a plate. The number of parasitized blood cells is counted under a microscope. The parasitaemia is expressed as percentage of infected erythrocytes present in the sample on a sample of 1000 cells. Six or seven mice are used per dose.
Each day, from day 5 after infection, the number of dead mice is counted so as to determine the percentage mortality (number of mice dead relative to the number of mice of the batch considered). The curative dose is the first dose at which all the mice of the batch survive.

[2] = tested on: Plasmodium vinckei vinckei; assay: In vivo activity in mice infected with Plasmodium vinckei vinckei: parasitaemia at D4 after 4 days of oral treatment
Excerpt: Female “Swiss” mice, aged eight weeks and one day, are inoculated with parasites of Plasmodium vinckei vinckei type (Rodhain, 1952). The mice are acclimatized beforehand for two weeks. The mice are given food and drink ad libitum.
The Plasmodium vinckei vinckei strain is maintained by weekly infection in the mouse with 10^7 parasitized erythrocytes suspended in a phosphate buffered saline (0.9%).
as §1, with “This” for “On the first day of treatment (D0), one hour after infection (10^7 parasitized erythrocytes suspended in a phosphate buffered saline (0.9%)), the animal is administered, orally, as appropriate, with ferroquine, with artesunate or with a mixture of the two active ingredients. This”
The IC50 is defined as the concentration in mg/kg/day which inhibits the blood parasitaemia by 50% at the fourth day (D4) after infection (D0) and four days of treatment (D0,D1,D2,D3). 0% inhibition corresponds to the mean of the parasitaemias observed in the untreated infected mice. […]
The IC50 of ferroquine is determined after administration of concentrations of between 1 and 10 mg/kg/day. […]

C[C@@H]1CC[C@H]2[C@@H](C)C(OC(=O)CCC(=O)[O-])O[C@@H]3O[C@]4(C)CC[C@@H]1C32OO4.[Na+] (stereo partly drawn) [artesunate]
curative dose (first dose at which all the mice of the batch survive) [1]: greater than 15 mg/kg/day
IC50 (dose which inhibits the blood parasitaemia by 50% at D4) ([2]; 4 days of treatment (D0-D3), parasitaemia at D4, compounds administered separately, linear interpolation of dose-response curve): 2.79 mg/kg/day
Parasitaemia (as %), mean ([2]; artesunate 6 mg/kg/day alone (ferroquine 0), 4 days, infected erythrocytes at fourth day after infection): 7.1%
